Experimental data from patent US12208092B2, “Compositions and methods for administering paltusotine to patients with hepatic impairment” (CRINETICS PHARMACEUTICALS, INC., priority 2023, dated 2025).

Tested on: plasma GH
Assay: suppression of plasma GH after rGHRH challenge in rat
Assay type: in vivo
Conditions: rat studies (GH and IGF-1 suppression)
Method: The in vivo pharmacological efficacy of paltusotine has been examined in rat and dog. In the rat, acute efficacy was evaluated by examining the suppression of plasma GH in response to a challenge with rat growth hormone releasing hormone (rGHRH). […] The effects of chronic, oral, 14-day administration of paltusotine were evaluated by measuring the sustained suppression of IGF-1 in the rat.

C[C@@H](O)[C@@H]1NC(=O)[C@H](CCCCN)NC(=O)[C@@H](Cc2c[nH]c3ccccc23)NC(=O)[C@H](Cc2ccccc2)NC(=O)[C@@H](NC(=O)[C@H](N)Cc2ccccc2)CSSC[C@@H](C(=O)N[C@H](CO)[C@@H](C)O)NC1=O [Octreotide, reference compound]
maximal effects as positive control: maximal effects similar to orally administered paltusotine
